Test results published in paper PMC10052977, “α,ω-Diacyl-Substituted Analogues of Natural and Unnatural Polyamines: Identification of Potent Bactericides That Selectively Target Bacterial Membranes” (International Journal of Molecular Sciences, 2023).
≈ marks a conversion by molar mass, not a printed value. Where two headings read alike, the source gives them in different places.

Columns and labels:
[1] = system: human red blood cells; test: Hemolytic assay; assay type: cell-based; conditions: mean (n = 2)
Method: Human whole blood was washed three times with 3 volumes of 0.9% NaCl and then resuspended in same to a concentration of 0.5 × 10^8 cells/mL, as determined by manual cell count in a Neubauer hemocytometer. The washed cells were then added to the 384-well compound-containing plates for a final volume of 50 μL. After a 10 min shake on a plate shaker, the plates were then incubated for 1 h at 37 °C. After incubation, the plates were centrifuged at 1000× g for 10 min to pellet cells and debris; 25 μL of the supernatant was then transferred to a polystyrene 384-well assay plate. Hemolysis was determined by measuring the supernatant absorbance at […] (OD405). The absorbance was measured using a Tecan M1000 Pro monochromator plate reader. HC10 and HC50 (concentration at 10% and 50% hemolysis, respectively) were calculated by curve fitting the inhibition values vs. log (concentration) using a sigmoidal dose–response function with variable fitting values for top, bottom and slope.

[2] = system: Candida albicans ATCC90028; test: Antifungal MIC, CO-ADD; assay type: cell-based; conditions: mean (n = 2)
Method: (§1) For the antifungal assay, fungi strains were cultured for 3 days on YPD agar at 30 °C. A yeast suspension of 1 × 10^6 to 5 × 10^6 CFU/mL was prepared from five colonies. These stock suspensions were diluted with yeast nitrogen base (YNB) (Becton Dickinson, 233520) broth to a final concentration of 2.5 × 10^3 CFU/mL. […] Plates were covered and incubated at 35 °C for 36 h without shaking. C. albicans MICs were determined by measuring the absorbance at OD530. […] Fluconazole was used as a positive fungal inhibitor standard for C. albicans and C. neoformans. […] Quality control (QC) of the assays was determined by antimicrobial controls and Z’-factor (using positive and negative controls).

[3] = system: Cryptococcus neoformans ATCC208821; test: Antifungal MIC, CO-ADD; assay type: cell-based; conditions: ATCC208821, Cryptococcus neoformans ATCC208821, mean (n = 2)
Method: as §1

[4] = system: Acinetobacter baumannii ATCC19606; test: MIC, CO-ADD broth microdilution; assay type: cell-based; conditions: mean (n = 2)
[5] = system: MRSA ATCC 43300; test: MIC, CO-ADD broth microdilution; assay type: cell-based, Staphylococcus aureus; conditions: for MIC: Staphylococcus aureus, read-out: MIC MRSA
[6] = system: Staphylococcus aureus ATCC 25923 or ATCC 29213; test: MIC, broth dilution (CA-SFM); assay type: cell-based; conditions: Staphylococcus aureus ATCC 25923 or ATCC 29213; mean (n = 3); read-out: MIC S. a
[7] = system: Pseudomonas aeruginosa PAO1 or ATCC 27853; test: MIC, broth dilution (CA-SFM); assay type: cell-based; conditions: mean (n = 3)
[8] = system: Klebsiella pneumoniae ATCC700603; test: MIC, CO-ADD broth microdilution; assay type: cell-based; conditions: mean (n = 2)
[9] = Cytotoxicity assay (resazurin); assay type: cell-based, human; conditions: human; HEK293 cells; mean (n = 2); highest dose tested 32 μg/mL; read-out: Cytotoxicity (concentration of compound at 50% cytotoxicity, IC50)
[10] = system: Escherichia coli ATCC 25922; test: MIC, CO-ADD broth microdilution; assay type: cell-based; conditions: ATCC25922, mean (n = 2)

SMILES	MIC [2]	MIC [3]	MIC [4]	MIC ([5]; MRSA ATCC 43300, mean (n = 2))	MIC [6]	MIC [7]	MIC [8]	MIC [10]	Hemolysis (HC10, concentration at 10% hemolytic activity) [1]	IC50 at 20 h [9]	activity towards MRSA [5]	MIC [5]
O=C(CCc1ccccc1)NCCCNCCCCCCNCCCNC(=O)CCc1ccccc1.O=C(O)C(F)(F)F.O=C(O)C(F)(F)F [Compound 13b, N^1,N^6-Bis(3-(3-phenylpropanamido)propyl)hexane-1,6-diaminium 2,2,2-trifluoroacetate]	> 44.3 µM	> 44.3 µM	> 44.3 µM	> 44.3 µM	> 277 µM	> 277 µM	> 44.3 µM	> 44.3 µM	>44.3 µM	> 44.3 µM	–	–
O=C(CCc1ccccc1)NCCCNCCCCCCCNCCCNC(=O)CCc1ccccc1.O=C(O)C(F)(F)F.O=C(O)C(F)(F)F [Compound 13c, N^1,N^7-Bis(3-(3-phenylpropanamido)propyl)heptane-1,7-diaminium 2,2,2-trifluoroacetate]	> 43.4 µM	> 43.4 µM	> 43.4 µM	> 43.4 µM	> 271 µM	> 271 µM	> 43.4 µM	> 43.4 µM	>43.4 µM	> 43.4 µM	–	–
O=C(CCc1ccccc1)NCCCNCCCCCCCCNCCCNC(=O)CCc1ccccc1.O=C(O)C(F)(F)F.O=C(O)C(F)(F)F [Compound 13d, N^1,N^8-Bis(3-(3-phenylpropanamido)propyl)octane-1,8-diaminium 2,2,2-trifluoroacetate]	> 42.6 µM	> 42.6 µM	> 42.6 µM	> 42.6 µM	> 266 µM	> 266 µM	> 42.6 µM	> 42.6 µM	>42.6 µM	> 42.6 µM	–	–
O=C(CCC(=O)NCCCc1ccccc1)NCCCNCCCCCCCCCCNCCCNC(=O)CCC(=O)NCCCc1ccccc1.O=C(O)C(F)(F)F.O=C(O)C(F)(F)F [Compound 14e, N^1,N^10-Bis(3-(4-oxo-4-((3-phenylpropyl)amino)butanamido)propyl)decane-1,10-diaminium 2,2,2-trifluoroacetate]	> 33.7 µM	33.7 µM	> 33.7 µM	4.21 µM	100 µM	> 200 µM	> 33.7 µM	33.7 µM	>33.7 µM	> 33.7 µM	weak	–
CC/C(=C(\c1ccccc1)c1ccc(OCCN(C)C)cc1)c1ccccc1 [Tamoxifen, reference compound]	–	–	–	–	–	–	–	–	–	24 µM	–	–
O=C(N[C@H](CO)[C@H](O)c1ccc([N+](=O)[O-])cc1)C(Cl)Cl [chloramphenicol, reference compound]	–	–	–	–	1.5 to 3 µM (≈ 0.485 to 0.969 µg/mL)	–	–	–	–	–	–	–
OC(Cn1cncn1)(Cn1cncn1)c1ccc(F)cc1F [fluconazole, reference compound]	0.4 µM (≈ 0.123 µg/mL)	26 µM (≈ 7.96 µg/mL)	–	–	–	–	–	–	–	–	–	–
[H]/N=C(/N)N[C@H]1[C@H](O)[C@@H](O)[C@H](O[C@@H]2O[C@@H](C)[C@](O)(C=O)[C@H]2O[C@@H]2O[C@@H](CO)[C@H](O)[C@@H](O)[C@@H]2NC)[C@@H](N/C(N)=N\[H])[C@@H]1O [streptomycin, reference compound]	–	–	–	–	21.5 µM (≈ 12.5 µg/mL)	21.5 µM (≈ 12.5 µg/mL)	–	–	–	–	–	–
CN[C@H](CC(C)C)C(=O)N[C@H]1C(=O)N[C@@H](CC(N)=O)C(=O)N[C@H]2C(=O)N[C@H]3C(=O)N[C@H](C(=O)N[C@H](C(=O)O)c4cc(O)cc(O)c4-c4cc3ccc4O)[C@H](O)c3ccc(c(Cl)c3)Oc3cc2cc(c3O[C@@H]2O[C@H](CO)[C@@H](O)[C@H](O)[C@H]2O[C@H]2C[C@](C)(N)[C@H](O)[C@H](C)O2)Oc2ccc(cc2Cl)[C@H]1O [vancomycin, reference compound]	–	–	–	–	–	–	–	–	–	–	–	0.7 µM (≈ 1.01 µg/mL)

Now from value to compound, other results behind:

MIC [2]	MIC [3]	MIC [4]	MIC ([5]; MRSA ATCC 43300, mean (n = 2))	MIC [6]	MIC [7]	MIC [8]	MIC [10]	SMILES	Hemolysis (HC10, concentration at 10% hemolytic activity) [1]	IC50 at 20 h [9]	activity towards MRSA [5]	MIC [5]
≤ 0.33 µM	> 42.4 µM	10.7 µM	≤ 0.33 µM	> 265 µM	265 µM	> 42.4 µM	≤ 0.33 µM	Cl.Cl.S=C(NCCCNCCCCCCNCCCNC(=S)NC(c1ccccc1)c1ccccc1)NC(c1ccccc1)c1ccccc1 [Compound 6b, N^1,N^6-Bis(3-(3-benzhydrylthioureido)propyl)hexane-1,6-diaminium chloride]	2.96 µM	> 42.4 µM	–	–
> 46.1 µM	> 46.1 µM	> 46.1 µM	> 46.1 µM	720 µM (≈ 336 µg/mL)	720 µM (≈ 336 µg/mL)	> 46.1 µM	> 46.1 µM	O=C(CCc1ccccc1)NCCCNCCCCNCCCNC(=O)CCc1ccccc1 [Compound 13a, N^1,N^4-Bis(3-(3-phenylpropanamido)propyl)butane-1,4-diaminium 2,2,2-trifluoroacetate]	–	–	–	–
> 41.1 µM	41.1 µM	> 41.1 µM	10.3 µM	32 µM	642 µM	> 41.1 µM	41.1 µM	O=C(CCc1ccccc1)NCCCNCCCCCCCCCCNCCCNC(=O)CCc1ccccc1.O=C(O)C(F)(F)F.O=C(O)C(F)(F)F [Compound 13e, N^1,N^10-Bis(3-(3-phenylpropanamido)propyl)decane-1,10-diaminium 2,2,2-trifluoroacetate]	>41.1 µM	> 41.1 µM	weak	–
> 39.7 µM	> 39.7 µM	> 39.7 µM	19.8 µM	50 µM	300 µM	> 39.7 µM	> 39.7 µM	O=C(CCc1ccccc1)NCCCNCCCCCCCCCCCCNCCCNC(=O)CCc1ccccc1.O=C(O)C(F)(F)F.O=C(O)C(F)(F)F [Compound 13f, N^1,N^12-Bis(3-(3-phenylpropanamido)propyl)dodecane-1,12-diaminium 2,2,2-trifluoroacetate]	>39.7 µM	> 39.7 µM	weak	–
> 37 µM	> 37 µM	> 37 µM	> 37 µM	100 µM	> 200 µM	> 37 µM	> 37 µM	O=C(CCC(=O)NCCCc1ccccc1)NCCCNCCCCNCCCNC(=O)CCC(=O)NCCCc1ccccc1.O=C(O)C(F)(F)F.O=C(O)C(F)(F)F [Compound 14a, N^1,N^4-Bis(3-(4-oxo-4-((3-phenylpropyl)amino)butanamido)propyl)butane-1,4-diaminium 2,2,2-trifluoroacetate]	>37 µM	> 37 µM	–	–
> 35.8 µM	> 35.8 µM	> 35.8 µM	> 35.8 µM	> 200 µM	> 200 µM	> 35.8 µM	> 35.8 µM	O=C(CCC(=O)NCCCc1ccccc1)NCCCNCCCCCCNCCCNC(=O)CCC(=O)NCCCc1ccccc1 [Compound 14b, N^1,N^6-Bis(3-(4-oxo-4-((3-phenylpropyl)amino)butanamido)propyl)hexane-1,6-diaminium 2,2,2-trifluoroacetate]	–	–	–	–
> 35.3 µM	> 35.3 µM	> 35.3 µM	> 35.3 µM	200 µM (≈ 136 µg/mL)	> 200 µM	> 35.3 µM	> 35.3 µM	O=C(CCC(=O)NCCCc1ccccc1)NCCCNCCCCCCCNCCCNC(=O)CCC(=O)NCCCc1ccccc1 [Compound 14c, N^1,N^7-Bis(3-(4-oxo-4-((3-phenylpropyl)amino)butanamido)propyl)heptane-1,7-diaminium 2,2,2-trifluoroacetate]	–	–	–	–
> 34.7 µM	> 34.7 µM	> 34.7 µM	> 34.7 µM	> 100 µM	> 100 µM	> 34.7 µM	> 34.7 µM	O=C(CCC(=O)NCCCc1ccccc1)NCCCNCCCCCCCCNCCCNC(=O)CCC(=O)NCCCc1ccccc1.O=C(O)C(F)(F)F.O=C(O)C(F)(F)F [Compound 14d, N^1,N^8-Bis(3-(4-oxo-4-((3-phenylpropyl)amino)butanamido)propyl)octane-1,8-diaminium 2,2,2-trifluoroacetate]	>34.7 µM	> 34.7 µM	–	–
–	–	–	–	–	90 µM (≈ 40 µg/mL)	–	–	C[C@H]1c2cccc(O)c2C(=O)C2=C(O)[C@]3(O)C(=O)C(C(N)=O)=C(O)[C@@H](N(C)C)[C@@H]3[C@@H](O)[C@@H]21 [doxycycline, reference compound]	–	–	–	–
